The values below are quoted from earlier work in patent publication US12622900B2, “Methods and compositions for treating gastric ulcers” (LUODA PHARMA LIMITED, priority 2015, dated 2026).

One data set relates to gastric acid secretion. The conditions noted are these: single intramuscular injection at 1 mg/kg bodyweight, omeprazole monohydrate dissolved in saline.
The next data set relates to gastric ulcers. The note with it: traditional oral dosing.

Each structure is given as a SMILES string.

Consider `COc1ccc2nc([S+]([O-])Cc3ncc(C)c(OC)c3C)[nH]c2c1` (stereo not drawn) [omeprazole, 6-methoxy-2-[(4-methoxy-3,5-dimethylpyridin-2-yl)methanesulfinyl]-1H-1,3-benzodiazole], for which the “Period for which the dose is effective” value in the data set on gastric acid (1-2 g daily oral dose to horses) is 12 to 24 h. In addition, the “Duration of adequate gastric acid suppression” value with gastric acid (oral omeprazole preparations in horses (Merritt et al)) is 12 h. In addition, in the data set on gastric acid secretion, the “Duration of pentagastrin-stimulated acid suppression” value was 12 h and the “Duration of reduced basal acid secretion” value is on record as “around 23 hours”. The Gastric ulcers healed with gastric ulcers (in 28-35 days) is on record as 25%. The “Squamous ulcers that will heal” value with gastric ulcers (within a 28 day treatment period) is given as 70-80%.
